Results published in patent US20250108038A1 (priority 2023, published 2025).
Like-named read-outs stand apart in the source and are kept apart here.

Assays:
[1] = molecular target: T1, OAT3 (Homo sapiens, UniProt Q8TCC7); test: Uptake transporter inhibition assay, OAT3 (estrone-3-sulfate)
T1 sequence (Q8TCC7 1-542): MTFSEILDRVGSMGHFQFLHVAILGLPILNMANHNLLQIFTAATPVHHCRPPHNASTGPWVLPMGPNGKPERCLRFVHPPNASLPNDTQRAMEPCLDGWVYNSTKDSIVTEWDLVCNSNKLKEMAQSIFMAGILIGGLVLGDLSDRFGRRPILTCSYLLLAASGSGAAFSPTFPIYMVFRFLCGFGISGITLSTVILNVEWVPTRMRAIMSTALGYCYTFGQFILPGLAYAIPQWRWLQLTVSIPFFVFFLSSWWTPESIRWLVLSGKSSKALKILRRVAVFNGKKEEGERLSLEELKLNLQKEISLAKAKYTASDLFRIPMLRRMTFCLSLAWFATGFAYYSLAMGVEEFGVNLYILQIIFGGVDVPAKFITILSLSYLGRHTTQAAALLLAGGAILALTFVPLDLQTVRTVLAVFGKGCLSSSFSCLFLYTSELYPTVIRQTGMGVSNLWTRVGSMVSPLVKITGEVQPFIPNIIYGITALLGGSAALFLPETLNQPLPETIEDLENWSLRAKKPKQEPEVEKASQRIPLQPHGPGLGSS
Description: Uptake experiments were performed using HEK293 cells stably expressing the respective uptake transporters. The assays were conducted according to the actual SOLVO uptake transporter assay protocols (PR-ASY-UPT-General Protocol for Uptake Transporter Inhibition Assays).
Cells were cultured at 37° C. in a humidified atmosphere containing 5% CO2 and were plated onto standard 96-well tissue culture plates.
Before the experiment, the medium was removed, and the cells were washed twice with 100 μL of pre-warmed (37° C.) assay buffer listed in Table 15. The cells were pre-incubated at 37° C. for 30 minutes in assay buffer containing the test article at appropriate concentrations (Table 16), appropriate solvents for solvent controls and the reference inhibitor for reference inhibitor wells. After the pre-incubation step solutions were removed. Uptake experiments were performed at 37° C. in 50 μL of assay buffer containing the probe substrate and the test article or solvent and controls.
After the experiment, cells were washed twice with 100 μL of appropriate cold buffer and lysed with 150 μL scintillation cocktail. Radiolabeled probe substrate transport was determined by liquid scintillation counting.
Uptake of the probe substrate in control cells provided background activity values for all data points.

[2] = molecular target: MATE2-K (Homo sapiens, UniProt Q86VL8); test: Uptake transporter inhibition assay, MATE2-K (metformin)
Chain of MATE2-K (Q86VL8 1-566 isoform Q86VL8-3): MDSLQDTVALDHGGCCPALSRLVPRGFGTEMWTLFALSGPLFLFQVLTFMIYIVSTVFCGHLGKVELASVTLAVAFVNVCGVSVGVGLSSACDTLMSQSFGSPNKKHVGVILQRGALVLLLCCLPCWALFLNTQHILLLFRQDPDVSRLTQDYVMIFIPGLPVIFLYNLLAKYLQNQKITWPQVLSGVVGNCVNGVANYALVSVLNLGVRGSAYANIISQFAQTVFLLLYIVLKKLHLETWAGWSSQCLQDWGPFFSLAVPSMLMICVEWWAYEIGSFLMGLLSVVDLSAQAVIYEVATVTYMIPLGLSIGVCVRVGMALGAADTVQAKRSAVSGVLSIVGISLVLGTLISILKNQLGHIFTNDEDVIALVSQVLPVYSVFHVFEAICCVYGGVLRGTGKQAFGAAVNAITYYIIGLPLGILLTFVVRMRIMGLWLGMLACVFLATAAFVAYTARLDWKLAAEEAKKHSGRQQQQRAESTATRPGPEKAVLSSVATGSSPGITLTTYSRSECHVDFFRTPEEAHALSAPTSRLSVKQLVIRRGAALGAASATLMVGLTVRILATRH

[3] = test system: orexin/tTA; Tet-O diphtheria toxin A mice (DTA mice); assay type: in vivo, mouse; settings: for latency to REM: vehicle about 100 min
[4] = molecular target: T2, MATE1 (Homo sapiens, UniProt Q96FL8); test: Uptake transporter inhibition assay, MATE1 (metformin)
T2 sequence (Q96FL8 1-570): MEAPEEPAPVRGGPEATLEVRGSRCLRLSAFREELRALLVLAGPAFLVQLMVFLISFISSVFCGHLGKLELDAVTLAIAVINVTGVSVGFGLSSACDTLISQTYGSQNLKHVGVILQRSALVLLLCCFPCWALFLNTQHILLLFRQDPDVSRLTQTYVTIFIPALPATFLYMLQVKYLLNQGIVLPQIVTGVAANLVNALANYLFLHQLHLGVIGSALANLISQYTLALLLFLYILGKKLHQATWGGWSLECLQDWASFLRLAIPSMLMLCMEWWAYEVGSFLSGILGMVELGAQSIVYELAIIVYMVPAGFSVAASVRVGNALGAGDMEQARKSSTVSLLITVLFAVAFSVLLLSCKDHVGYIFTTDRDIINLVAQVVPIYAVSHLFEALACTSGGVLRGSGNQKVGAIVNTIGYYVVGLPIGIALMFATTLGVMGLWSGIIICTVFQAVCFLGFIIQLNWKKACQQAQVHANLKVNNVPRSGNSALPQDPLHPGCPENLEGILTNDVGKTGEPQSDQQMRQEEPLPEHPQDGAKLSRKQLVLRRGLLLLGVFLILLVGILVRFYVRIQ

[5] = 10.00 μM nominal, 6.60 μM NSB corrected
[6] = 100.00 μM nominal, 77.00 μM NSB corrected
[7] = 0.14 μM nominal, 0.08 μM NSB corrected, follow-up assay
[8] = 1.24 μM nominal, 0.79 μM NSB corrected, follow-up assay
[9] = 10.00 μM nominal, 6.50 μM NSB corrected
[10] = 11.11 μM nominal, 6.11 μM NSB corrected, follow-up assay
[11] = 33.33 μM nominal, 20.33 μM NSB corrected, follow-up assay
[12] = 100.00 μM nominal, 67.00 μM NSB corrected
[13] = 100.00 μM nominal, […] NSB corrected, follow-up assay
[14] = […] nominal, 2.37 μM NSB corrected, follow-up assay
[15] = follow-up assay, NSB-corrected concentrations for Compound I-19
[16] = last 6 h of the dark period (ZT19-ZT24)

## Clc1ccc(C2(OCC3OCCO3)c3ccccc3C3=NCCN32)cc1 (stereo not shown) [Compound I-19]
[1]; [5]
  Relative inhibition: 5%
  Relative transporter specific accumulation: 95.18 ± 1.71 % of control
  Transporter specific accumulation: 10,323.00 ± 126.84 cpm
[1]; [6]
  Relative inhibition: 42%
  Relative transporter specific accumulation: 57.83 ± 0.99 % of control
  Transporter specific accumulation: 6,272.33 ± 68.97 cpm
[1]; OAT3, HEK293 cells, E3S (1 μM), NIO: no inhibition observed
  Maximum % inhibition: 42%
[2]; [7]
  Relative inhibition: 5%
  Relative transporter specific accumulation: 95.22 ± 8.50 % of control
  Transporter specific accumulation: 99.67 ± 6.15 cpm
[2]; [8]
  Relative inhibition: 0%
  Relative transporter specific accumulation: 100.32 ± 8.62 % of control
  Transporter specific accumulation: 105.00 ± 5.96 cpm
[2]; [9]
  Relative inhibition: 14%
  Relative transporter specific accumulation: 85.87 ± 5.57 % of control
  Transporter specific accumulation: 154.00 ± 7.39 cpm
[2]; [10]
  Relative inhibition: 15%
  Relative transporter specific accumulation: 84.71 ± 5.61 % of control
  Transporter specific accumulation: 88.67 ± 1.33 cpm
[2]; [11]
  Relative inhibition: 44%
  Relative transporter specific accumulation: 56.05 ± 3.67 % of control
  Transporter specific accumulation: 58.67 ± 0.67 cpm
[2]; [12]
  Relative inhibition: 93%
  Relative transporter specific accumulation: 7.06 ± 5.01 % of control
  Transporter specific accumulation: 12.67 ± 8.97 cpm
[2]; [13]
  Relative inhibition: 86%
  Relative transporter specific accumulation: 14.01 ± 1.15 % of control
  Transporter specific accumulation: 14.67 ± 0.75 cpm
[2]; 2-concentration assay, Compound I-19 100 μM, Compound A 30 μM, Compound B 80 μM
  maximum inhibition of MATE2-K-mediated metformin accumulation: 93%
[2]; MATE2-K, HEK293 cells, metformin (10 μM), NIO: no inhibition observed
  Maximum % inhibition: 86%
[2]; [14]
  Relative inhibition: 1%
  Relative transporter specific accumulation: 99.36 ± 6.66 % of control
  Transporter specific accumulation: 104.00 ± 1.89 cpm
[2]; follow-up assay
  maximum inhibition of MATE2-K-mediated metformin accumulation: 86%
[2]; [15]
  IC50: 36.6 µM
[3]; 6 h after dosing at ZT12
  body temperature (Tb): No significant effects
  locomotor activity (LMA): No significant effects
  total W or NREM time: No significant effects on total W or NREM were observed
[3]; 6 h after dosing at ZT12, Compound I-19 0.3, 1, 3 mg/kg i.p., Compound I-4 0.3, 1, 3 mg/kg p.o., Des 5 mg/kg p.o.
  cataplexy (C) time: Total C time significantly decreased following all three concentrations
[3]; 6 h after dosing at ZT12, same doses
  REM time: REM time significantly decreased following Compound I-19 at the two highest doses (1 and 3 mg/kg)
[3]; Compound I-19 1 mg/kg i.p.
  REM:NR ratio: ~0.2
  latency to REM: ~275 min
[3]; Compound I-19 3 mg/kg i.p.
  REM:NR ratio: ~0.1
  latency to REM: ~325 min
[3]; [16]
  cataplexy (C), hourly, cumulative and total time: significantly less following the high concentration of Compound I-19 (3 mg/kg)
  time in W, NREM or REM: not different from Veh
[4]; [7]
  Relative inhibition: 5%
  Relative transporter specific accumulation: 95.19 ± 6.24 % of control
  Transporter specific accumulation: 468.00 ± 24.27 cpm
[4]; [8]
  Relative inhibition: 19%
  Relative transporter specific accumulation: 81.36 ± 3.96 % of control
  Transporter specific accumulation: 400.00 ± 11.06 cpm
[4]; [9]
  Relative inhibition: 54%
  Relative transporter specific accumulation: 45.62 ± 4.36 % of control
  Transporter specific accumulation: 173.67 ± 6.31 cpm
[4]; [10]
  Relative inhibition: 63%
  Relative transporter specific accumulation: 37.02 ± 4.79 % of control
  Transporter specific accumulation: 182.00 ± 22.40 cpm
[4]; [11]
  Relative inhibition: 88%
  Relative transporter specific accumulation: 11.73 ± 1.78 % of control
  Transporter specific accumulation: 57.67 ± 8.46 cpm
[4]; [12]
  Relative inhibition: 101%
  Relative transporter specific accumulation: −1.49 ± 0.63 % of control
  Transporter specific accumulation: −5.67 ± 2.36 cpm
[4]; [13]
  Relative inhibition: 104%
  Relative transporter specific accumulation: −4.47 ± 0.42 % of control
  Transporter specific accumulation: −22.00 ± 1.89 cpm
[4]; 2-concentration assay, Compound I-19 100 μM, Compound A 30 μM, Compound B 50 μM
  maximum inhibition of MATE1-mediated metformin accumulation: completely inhibited
[4]; MATE1, HEK293 cells, metformin (10 μM), NIO: no inhibition observed
  Maximum % inhibition: 104%
[4]; [14]
  Relative inhibition: 30%
  Relative transporter specific accumulation: 70.03 ± 4.41 % of control
  Transporter specific accumulation: 344.33 ± 16.76 cpm
[4]; [15]
  IC50: 8.86 µM
